“And” between values parts separate entries of the source, which are not always exact repeats. Identical values can stand only once.
Legend:
[1] = tested on: MDA-MB-231: human breast adenocarcinoma; test: In vitro cytotoxicity / antiproliferation, MDA-MB-231; assay type: cell-based; conditions: MDA-MB-231, read-out: Antiproliferation activity (IC50)
[2] = tested on: A549: human non-small-cell lung carcinoma; test: In vitro cytotoxicity / antiproliferation, A549; assay type: cell-based
Method: (§1) The in vitro cytotoxicity of boronic derivatives of hydroxamates was tested against various cancer cell lines; the results are provided in Table 1.

[3] = tested on: HeLa: human epitheloid cervix carcinoma; test: In vitro cytotoxicity / antiproliferation, HeLa; assay type: cell-based
Method: as §1

[4] = tested on: MCF-7: human breast adenocarcinoma; test: In vitro cytotoxicity / antiproliferation, MCF-7; assay type: cell-based; conditions: MCF7
Method: as §1

MCF-7 tumor xenograft = test: In vivo efficacy in MCF-7 tumor xenograft model in mice; conditions: 10 mg/kg/day subcutaneous; for effect on tumor growth (in words): compared with vehicle group; for average tumor volume: day 15; for Tumor volume: day 24, MCF-7 xenograft mice
[5] = tested on: SK-MEL-28: human melanoma; test: In vitro cytotoxicity / antiproliferation, SK-MEL-28; assay type: cell-based; conditions: SK-MEL-28, read-out: Antiproliferation activity (IC50)
[6] = tested on: SK-OV-3: human ovarian cancer; test: In vitro cytotoxicity / antiproliferation, SK-OV-3; assay type: cell-based
[7] = tested on: NCI-H460: human non-small-cell lung cancer; test: In vitro cytotoxicity / antiproliferation, NCI-H460; assay type: cell-based; conditions: NCI-H460, read-out: Antiproliferation activity (IC50)
MDA-MB-231 cells = test: In vitro pharmacokinetics: concentrations in culture media after incubation with MDA-MB-231 cells; assay type: in vitro ADME, human; conditions: 1-day incubation with MDA-MB-231 cells
[8] = molecular target: Histone deacetylase (HDAC); test: Histone deacetylase activity assay kit (Fluorometric) ab156064; assay type: biochemical; conditions: 20 min incubation; read-out: HDAC inhibitory activity EC50
[9] = Concentration in tumor tissue of MCF-7 xenograft mice; assay type: in vivo; conditions: after 24 days at 10 mg/kg/day subcutaneous
[10] = In vivo pharmacokinetics in mice after intraperitoneal injection (plasma); conditions: single dose 10 mg/kg IP
Method: Pharmacokinetic studies of compound 3 in mice were conducted.

O=C(/C=C/c1cccc(S(=O)(=O)Nc2ccccc2)c1)NO [Belinostat, reference compound]
IC50 [1]: 0.0616 µM
IC50 [2]: 0.0766 µM
IC50 [3]: 0.0865 µM
IC50 [4]: 0.0964 µM
TGI (inhibition of tumor growth) (MCF-7 tumor xenograft; 24 days): 77.7%
effect on tumor growth (in words) (MCF-7 tumor xenograft): potent inhibitory activity against the growth of tumor
average tumor volume (MCF-7 tumor xenograft): 167 mm^3
Tumor volume (MCF-7 tumor xenograft): 194 mm^3 and 193.68 ± 29.79 mm^3

Cn1c(CCCC(=O)O)nc2cc(N(CCCl)CCCl)ccc21 [Bendamustine, reference compound]
IC50 [1]: 37.5 µM
IC50 [5]: 149 µM
IC50 [6]: 33.4 µM
IC50 [7]: 45.3 µM

CC1(C)OB(c2ccc(CONC(=O)CCCCCCC(=O)Nc3ccccc3)cc2)OC1(C)C [Compound 1]
IC50 [1]: 423 µM
IC50 [5]: 13.5 µM
IC50 [6]: 55.2 µM

CC1(C)OB(c2ccc(CONC(=O)/C=C/c3cccc(S(=O)(=O)Nc4ccccc4)c3)cc2)OC1(C)C [Compound 3]
IC50 [1]: 0.303 µM
IC50 [2]: 0.453 µM
IC50 [3]: 0.273 µM
IC50 [5]: 0.678 µM
IC50 [4]: 1.46 µM
IC50 [7]: 0.43 µM
conversion of compound 3 in culture media (in words) (MDA-MB-231 cells): completely converted to compound 95 and partially to belinostat
EC50 [8]: 0.35 µM
T/C (tumor volume ratio) (MCF-7 tumor xenograft; 24 days): 14.6%
TGI (inhibition of tumor growth) (MCF-7 tumor xenograft; 24 days): 85.3%
effect on tumor growth (in words) (MCF-7 tumor xenograft): resulted in tumor remission
effect on tumor growth (in words) (MCF-7 tumor xenograft; listed as compound 3): potent inhibitory activity against the growth of tumor
average tumor volume (MCF-7 tumor xenograft): 153 mm^3
Tumor volume (MCF-7 tumor xenograft): 127 mm^3
concentration of belinostat and compound 95 added together in tumor tissue, relative to belinostat group [9]: five times greater
maximum concentration of compound 95 relative to maximum concentration achieved by belinostat [10]: about forty times

CCN(CC)Cc1ccc2cc(COC(=O)Nc3ccc(C(=O)NOCc4ccc(B5OC(C)(C)C(C)(C)O5)cc4)cc3)ccc2c1 [Compound 4]
IC50 [1]: 0.321 µM
IC50 [5]: 0.377 µM
IC50 [6]: 0.296 µM
IC50 [7]: 0.154 µM

CN(C)Cc1ccc(S(=O)(=O)n2ccc(/C=C/C(=O)NOCc3ccc(B4OC(C)(C)C(C)(C)O4)cc3)c2)cc1 [Compound 5]
IC50 [1]: > 10 µM
IC50 [2]: > 10 µM
IC50 [3]: > 10 µM

Cn1c(CCCC(=O)NOCc2ccc(B3OC(C)(C)C(C)(C)O3)cc2)nc2cc(N(CCCl)CCCl)ccc21 [Compound 7]
IC50 [1]: 3.33 µM
IC50 [5]: 0.373 µM
IC50 [6]: 1.84 µM
IC50 [7]: 1.22 µM

COc1ccc(C(=O)NOCc2ccc(B3OC(C)(C)C(C)(C)O3)cc2)cc1 [Compound 10]
IC50 [1]: > 10 µM
IC50 [2]: > 10 µM
IC50 [3]: > 10 µM

CC1=C(CC(=O)NOCc2ccc(B3OC(C)(C)C(C)(C)O3)cc2)c2cc(F)ccc2/C1=C/c1ccc([S+](C)[O-])cc1 (stereo not drawn) [Compound 11]
IC50 [1]: 20.1 µM
IC50 [2]: 696 µM
IC50 [3]: 277 µM
IC50 [5]: 77.4 µM
IC50 [6]: 19.4 µM
IC50 [7]: 1.01 µM

COc1cc(C(=O)NOCc2ccc(B3OC(C)(C)C(C)(C)O3)cc2)cc(OC)c1OC [Compound 13]
IC50 [1]: > 10 µM
IC50 [2]: > 10 µM
IC50 [3]: > 10 µM

CC(C)Cc1ccc(C(C)C(=O)NOCc2ccc(B3OC(C)(C)C(C)(C)O3)cc2)cc1 (stereo not drawn) [Compound 14]
IC50 [1]: > 10 µM
IC50 [2]: > 10 µM
IC50 [3]: > 10 µM

CC1(C)OB(c2ccc(CONC(=O)c3cc4ccccc4oc3=O)cc2)OC1(C)C [Compound 15]
IC50 [1]: > 10 µM
IC50 [2]: > 10 µM
IC50 [3]: > 10 µM

COc1ccc(C(=O)NOCc2ccc(B3OC(C)(C)C(C)(C)O3)cc2)cc1OC [Compound 16]
IC50 [1]: > 10 µM
IC50 [2]: > 10 µM
IC50 [3]: > 10 µM

CCN(CC)Cc1ccc2cc(COC(=O)Nc3ccc(C(=O)NO)cc3)ccc2c1 [Givinostat, reference compound]
IC50 [1]: 0.119 µM
IC50 [5]: 0.0913 µM
IC50 [7]: 0.103 µM

CC1=C(CC(=O)O)c2cc(F)ccc2/C1=C\c1ccc([S+](C)[O-])cc1 (stereo not drawn) [Sulindac, reference compound]
IC50 [1]: 1400 µM
IC50 [2]: 20400 µM
IC50 [3]: 458 µM
IC50 [5]: 1400 µM
IC50 [6]: 109 µM
IC50 [7]: 41.9 µM
